The source of these data is EP0771187B1, “NOVEL COMBINATION PRODUCT COMPRISING AN ANTIFUNGAL AGENT AND CROTAMITON AS AN ANTIFUNGAL ACTIVITY ENHANCER AND DERMATOLOGICAL OR COSMETIC COMPOSITIONS COMPRISING SAME” (Pierre Fabre Dermo-Cosmetique, priority 1994, dated 1996).

Common to all, as to assay type: cell-based
For assay [1], the system named is Pityrosporium ovale sauvages dont une éco-R. Kind of assay: Fungicidal activity: checkerboard combined with Afnor membrane filtration, 5 min contact (Example 1). Conditions: pH about 8, read-out: Mg : moyenne géométrique du Log 10 de la réduction du nombre de germes; for log reduction at 2 %: product alone at 2 % (m/v); for log reduction at 4 %: product alone at 4 % (m/v). As for the experimental part:
CMF définissant la concentration minimale de fongicide pour laquelle on obtient une diminution de 4.Log 10 de l'inoculum ensemencé en 5 minutes de contact à 20°C.
Des souches de Malassezia furfur (Pityrosporum ovale) ont été testées pour leur sensibilité vis-à-vis des principes actifs seuls ou bien en association selon l'invention.
Les souches sont issues du Laboratoire de Parasitologie du Centre Hospitalier Régional de Rangueil de TOULOUSE (France) et une souche est éconazole résistante (éco-R). Elles ont été cultivées lors des essais sur milieu Dixon solide.
(§1) La technique utilisée est originale car elle utilise à la fois le principe de la technique de l'échiquer et celui de la norme Afnor par filtration sur membrane relative à la fongicidie avec un temps de contact germe-molécules de 5 minutes.
(§2) C'est une macro-méthode qui a donc été réalisée ici avec validations à chaque essai du témoin solvant des molécules (Tween® 20 %, éthanol 17 % dans l'eau distillée).
Ce solvant inhibe légèrement l'activité de la ciclopiroxolamine, et il faut donc s'attendre à de meilleurs résultats en pratique. Les autres témoins sont celui de la vigueur de la souche et de l'efficacité des produits seuls, soit : - ciclopiroxolamine 4 % - crotamiton 4 %
Le tableau 1 représente les moyennes géométiques de la réduction logarithmique sur deux Pityrosporium ovale sauvages dont une éco-R, le nombre d'essais ainsi que le pourcentage d'efficacité.
La norme Afnor considère qu'il y a fongicidie pour une réduction de 4 Log 10 de l'inoculum après 15 minutes de contact.
Le pH de l'ensemble de ces études se situe autour de 8.

Another assay concerns P. ovale éco-R. The assay can be described thus: Fungicidal activity: checkerboard combined with Afnor membrane filtration, 5 min contact (Example 2, Table 2). To be noted: Pityrosporium ovale, pH 9, read-out: Mg; for log reduction at 2 %: product alone at 2 %. As for the experimental part:
as §1, §2
(§3) L'association de l'octopirox avec le crotamiton a été testé selon la méthodologie de l'exemple 1 sur une souche Pityrosporium ovale éco-R et C. albicans ATCC 9021.
Le tableau 2 représente les résultats obtenus sur P. ovale éco-R après cinq minutes de contact pour l'association : • crotamiton 1 % - octopirox 1 % pour lequel nous avons 100 % d'efficacité • alors que les produits seuls à double ou quadruple concentrations sont moins actifs.
(§4) Le même solvant a été utilisé et validé à chaque essai comme le spécifie la norme Afnor.
(§5) Les essais de l'exemple 2 ont été réalisés avec un pH plus basique = 9.

The next assay concerns C. albicans ATCC 9021. The assay can be described thus: Fungicidal activity: checkerboard combined with Afnor membrane filtration, 5 min contact (Example 2, Table 3). Conditions: Candida albicans, ATCC9021, 5 min, pH 9, read-out: Mg; for log reduction at 2 %: product alone at 2 %. As for the experimental part: as §1, §2, §3, §4
Ces Résultats ont été confirmés sur une levure de référence Afnor (C.albicans ATCC 9021). Les résultats sont reportés dans le tableau 3.
as §5

With `Cc1cc(C2CCCCC2)n(O)c(=O)c1` [CPO, ciclopirox olamine], in assay [1], the log reduction at 2 % amounted to 0.43 and the log reduction at 4 % is 2.05.

For the molecule `Cc1cc(CC(C)CC(C)(C)C)n(O)c(=O)c1` (stereo not drawn) [Octo, octopirox], the log reduction at 2 % in the assay on P. ovale éco-R turned out to be 1.85; with C. albicans ATCC 9021, 3.18. In addition, the log reduction at 1 % in the assay with C. albicans ATCC 9021 (product alone at 1 %) is 0.36.

As for `CC=CC(=O)N(CC)c1ccccc1C` [Crota, N-éthyl-N-O-tolylcrotonamide], the figures for the log reduction at 2 % (in the assay on P. ovale éco-R; in assay [1]; in the assay on C. albicans ATCC 9021) were 1.59, 0.77 and 2.43, respectively. Besides, the log reduction at 4 % was found to be 3.26 with P. ovale éco-R (product alone at 4 %), 3.77 in assay [1] and 4.95 in the assay on C. albicans ATCC 9021 (product alone at 4 %). The log reduction at 1 % in assay [1] (product alone at 1 % (m/v)) came to 0.03.
